Source: patent US20200361895A1, “NOVEL SULFONAMIDE CARBOXAMIDE COMPOUNDS” (Inflazome Limited, priority 2017, published 2020)
Counter-ions that a name gives are not always drawn.

What was measured:
NLRP3 [1] = target: T1, NLRP3 (Homo sapiens, UniProt Q96P20); test: Human whole blood IL1β release assay (LPS + nigericin, AlphaLisa IL-1β; HWB IC50); format: cell-based; parameters: Human whole blood in Li-heparin tubes was obtained from healthy donors from a volunteer donor panel; from tissue; host or cells: human whole blood from healthy donors; details: IL-1β release
T1 sequence (Q96P20 whole entry): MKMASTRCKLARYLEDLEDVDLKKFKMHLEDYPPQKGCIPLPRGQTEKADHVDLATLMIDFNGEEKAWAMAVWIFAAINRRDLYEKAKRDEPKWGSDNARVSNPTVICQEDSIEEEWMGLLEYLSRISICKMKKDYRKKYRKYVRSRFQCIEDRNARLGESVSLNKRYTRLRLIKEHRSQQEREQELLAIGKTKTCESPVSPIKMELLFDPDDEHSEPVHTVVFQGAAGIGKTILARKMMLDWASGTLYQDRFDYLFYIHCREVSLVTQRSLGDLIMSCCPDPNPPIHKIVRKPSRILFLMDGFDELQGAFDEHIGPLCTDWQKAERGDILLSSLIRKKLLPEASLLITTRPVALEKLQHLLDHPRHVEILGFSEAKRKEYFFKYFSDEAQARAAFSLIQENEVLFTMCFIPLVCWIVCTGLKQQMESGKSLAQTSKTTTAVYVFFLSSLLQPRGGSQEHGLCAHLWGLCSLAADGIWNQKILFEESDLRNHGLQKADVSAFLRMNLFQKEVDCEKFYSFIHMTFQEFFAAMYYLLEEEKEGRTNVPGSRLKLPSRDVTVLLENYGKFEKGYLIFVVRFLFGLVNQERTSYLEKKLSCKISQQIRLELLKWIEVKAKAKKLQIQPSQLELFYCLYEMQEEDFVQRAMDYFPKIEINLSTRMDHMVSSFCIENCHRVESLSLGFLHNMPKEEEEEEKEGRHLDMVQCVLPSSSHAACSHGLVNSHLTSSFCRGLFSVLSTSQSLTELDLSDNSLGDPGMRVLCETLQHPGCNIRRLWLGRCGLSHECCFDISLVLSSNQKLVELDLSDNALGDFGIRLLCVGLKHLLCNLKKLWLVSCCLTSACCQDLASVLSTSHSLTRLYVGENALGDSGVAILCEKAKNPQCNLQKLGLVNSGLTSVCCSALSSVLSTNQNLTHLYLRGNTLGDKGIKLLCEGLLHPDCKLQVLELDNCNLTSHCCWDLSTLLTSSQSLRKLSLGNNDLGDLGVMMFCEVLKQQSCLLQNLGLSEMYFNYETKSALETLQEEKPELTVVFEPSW
Summary of the method: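 Donor Li-heparin whole blood primed with 1 μg/ml LPS, given compound (8-point half-log series, 10 μM top; DMSO 0.1% final) for 3 h at 37 °C, then nigericin 10 μM final for 1 h. Supernatant IL-1β measured by AlphaLisa; IC50 from 4-parameter variable-slope fit.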

NLRP3 [2] = target: T1, NLRP3; test: THP-1 cells pyroptosis assay (LPS + nigericin, resazurin readout; THP IC50); format: cell-based; parameters: Seed THP-1 cells (25,000 cells/well) containing 1.0 μg/ml LPS in 40 μl of RPMI medium; host or cells: THP-1 cells
Summary of the method: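 Human THP-1 cells, 25,000/well in serum-free RPMI with 1 μg/ml LPS, treated 3 hrs at 37° C with compound (8-point half-log, 10 μM top, 0.1% DMSO), then 5 μM nigericin 1 hr. Viability by 100 μM resazurin fluorescence after 1-2 hrs; IC50 by 4-parameter fit.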

SMILES | IC50 (NLRP3 [1]) | IC50 (NLRP3 [2])
[2H]C([2H])([2H])Oc1cc(-c2ccc3c(c2NC(=O)NS(=O)(=O)c2ccn(C4CC4)n2)CCC3)ccn1 [Example 279, 1-Cyclopropyl-N-((5-(2-(methoxy-d3)pyridin-4-yl)-2,3-dihydro-1H-inden-4-yl)carbamoyl)-1H-pyrazole-3-sulfonamide, sodium salt] | ≤ 500 nM | ≤ 500 nM
[2H]C([2H])([2H])Oc1cc(-c2ccc3c(c2NC(=O)NS(=O)(=O)c2ccn(C4CCC4)n2)CCO3)ccn1 [Example 280, 1-Cyclobutyl-N-((5-(2-(methoxy-d3)pyridin-4-yl)-2,3-dihydrobenzofuran-4-yl)carbamoyl)-1H-pyrazole-3-sulfonamide, sodium salt] | ≤ 500 nM | ≤ 500 nM
COc1cc(-c2ccc3c(c2NC(=O)NS(=O)(=O)c2ccn(C4CCC4)n2)CCO3)c(F)cn1 [Example 281, 1-Cyclobutyl-N-((5-(5-fluoro-2-methoxypyridin-4-yl)-2,3-dihydrobenzofuran-4-yl)carbamoyl)-1H-pyrazole-3-sulfonamide, sodium salt] | ≤ 500 nM | ≤ 500 nM
COc1cc(-c2ccc3c(c2NC(=O)NS(=O)(=O)c2ccc(C(C)C)c(CN(C)C)c2)CCC3)ccn1 [Example 282, 3-((Dimethylamino)methyl)-4-isopropyl-N-((5-(2-methoxypyridin-4-yl)-2,3-dihydro-1H-inden-4-yl)carbamoyl)benzenesulfonamide, sodium salt] | ≤ 500 nM | ≤ 500 nM
COc1cc(-c2ccc3c(c2NC(=O)NS(=O)(=O)OC2CCN(C)C2)CCC3)ccn1 (stereo not shown) [Example 284, 1-Methylpyrrolidin-3-yl (5-(2-methoxypyridin-4-yl)-2,3-dihydro-1H-inden-4-yl)carbamoylsulfamate] | ≤ 1000 nM | ≤ 500 nM
CC(C)n1ccc(S(=O)(=O)NC(=O)Nc2c(-c3ccnc(N)c3)ccc3c2CCC3)n1 [Example 285, N-((5-(2-Aminopyridin-4-yl)-2,3-dihydro-1H-inden-4-yl)carbamoyl)-1-isopropyl-1H-pyrazole-3-sulfonamide] | ≤ 5000 nM | ≤ 500 nM
CC(C)n1ccc(S(=O)(=O)NC(=O)Nc2c(-c3ccnc(Oc4ccccc4)c3)ccc3c2CCC3)n1 [Example 286, 1-Isopropyl-N-((5-(2-phenoxypyridin-4-yl)-2,3-dihydro-1H-inden-4-yl)carbamoyl)-1H-pyrazole-3-sulfonamide, sodium salt] | ≤ 10000 nM | ≤ 500 nM
CC(C)n1ccc(S(=O)(=O)NC(=O)Nc2c(-c3ccnc(OC4CCN(C)CC4)c3)ccc3c2CCC3)n1 [Example 287, 1-Isopropyl-N-((5-(2-((1-methylpiperidin-4-yl)oxy)pyridin-4-yl)-2,3-dihydro-1H-inden-4-yl)carbamoyl)-1H-pyrazole-3-sulfonamide, sodium salt] | ≤ 500 nM | ≤ 500 nM
CC(C)n1ccc(S(=O)(=O)NC(=O)Nc2c(-c3ccnc(OC4CCCOC4)c3)ccc3c2CCC3)n1 (stereo not shown) [Example 288, 1-Isopropyl-N-((5-(2-((tetrahydro-2H-pyran-3-yl)oxy)pyridin-4-yl)-2,3-dihydro-1H-inden-4-yl)carbamoyl)-1H-pyrazole-3-sulfonamide, sodium salt] | ≤ 5000 nM | ≤ 500 nM
COCC(C)Oc1cc(-c2ccc3c(c2NC(=O)NS(=O)(=O)c2ccn(C(C)C)n2)CCC3)ccn1 (stereo not shown) [Example 289, 1-Isopropyl-N-((5-(2-((1-methoxypropan-2-yl)oxy)pyridin-4-yl)-2,3-dihydro-1H-inden-4-yl)carbamoyl)-1H-pyrazole-3-sulfonamide, sodium salt] | ≤ 5000 nM | ≤ 500 nM
[2H]C([2H])([2H])Oc1cc(-c2ccc3c(c2NC(=O)NS(=O)(=O)c2ccn(C4CCC4)n2)CCC3)ccn1 [Example 290, 1-Cyclobutyl-N-((5-(2-(methoxy-d3)pyridin-4-yl)-2,3-dihydro-1H-inden-4-yl)carbamoyl)-1H-pyrazole-3-sulfonamide, sodium salt] | ≤ 500 nM | ≤ 500 nM
